Reference: patent US10195179B2, “Spiro-lactam NMDA receptor modulators and uses thereof” (Aptinyx Inc., priority 2016, dated 2019)

Assays:
[1] = target: NR2A (Homo sapiens, UniProt Q12879); experiment: Potentiation of [3H]MK-801 binding, wild-type NMDAR2A; parameters: species or system rat
[2] = tested on: Sprague Dawley rats; experiment: Porsolt forced swim test; assay type: in vivo, rat; details: 1-100 μg/kg PO, 1 h post-dosing
Procedure: A non-clinical in vivo pharmacology study (Porsolt assay) was performed to measure antidepressant-like effects. A negative control (0.5% sodium carboxymethyl cellulose in 0.9% sterile saline vehicle) and a positive control (Compound C) were used to compare against Compound BB. The study allowed for the construction of a dose-response curve of the effects of each compound on the Porsolt forced swim test as assessed by the rats' response (reduced floating time) during a 5-minute swimming test.
Male 2-3 month old Sprague Dawley rats were used (Harlan, Indianapolis, Ind.). Rats were housed in Lucite cages with aspen wood chip bedding, maintained on a 12:12 light:dark cycle (lights on at 5 AM), and given ad libitum access to Purina lab chow (USA) and tap water throughout the study.
The Porsolt forced swim test adapted for use in rats was performed as described by Burgdorf et al., (The long-lasting antidepressant effects of rapastinel (GLYX-13) are associated with a metaplasticity process in the medial prefrontal cortex and hippocampus. Neuroscience 308:202-211, 2015). Animals were placed in a 46 cm tall×20 cm in diameter clear glass tube filled to 30 cm with tap water (23±1° C.) for 15 min on the first day (habituation) and 5 min on the subsequent test day. Animals were tested 1 h post-dosing with the compound BB, positive control (Compound C, 10 μg/kg), or vehicle (0.5% sodium carboxymethyl cellulose (Na-CMC) in 0.9% sterile saline). Water was changed after every other animal. Animals were videotaped, and floating time as defined as the minimal amount of effort required to keep the animals head above water was scored offline by a blinded experimenter with high inter-rater reliability (Pearson's r >0.9).
The maximally efficacious dose was defined as the lowest dose that was statistically different from vehicle but statistically equivalent (per Fisher's PLSD) to the higher doses. […]
Compound AA was assessed in a second set of animals at a single dose at 1 h post-administration and in a third set of animals at 24 h post-administration (FIG. 9B). […]

[3] = tested on: Sprague Dawley rats; experiment: Blast-induced traumatic brain injury/cognitive deficits measured by PEL; assay type: in vivo, rat; details: 10 mg/kg PO 1 h post-blast, PEL 48 hours post-blast
Excerpt: Single blast-induced traumatic brain injury/cognitive deficits were induced, modified for use in rats according to the protocol of Goldstein et al., “Chronic traumatic encephalopathy in blast-exposed military veterans and a blast neurotrauma mouse model,” Science Translational Medicine, Vol. 4, Issue 134, pp. 134ra60, 2012. Male 2-3 month old Sprague Dawley rats were used. Rats were housed in Lucite cages with aspen wood chip bedding, maintained on a 12:12 light:dark cycle (lights on at 5 AM), and given ad libitum access to Purina lab chow (USA) and tap water throughout the study. Rats were first anesthetized using 3.5-4% isoflurane, then the ears were protected with 1.5×1.5 mm foam plugs (Pura-Fit®, Moldex-Metric Inc., Culver City, Calif.), and the rat was placed into a head access rodent thoracic restrainer (Stoelting, USA) to protect the body while allowing the head to move freely. […]
PEL (Positive emotional learning) was conducted 48 hours post-blast. […] High frequency ultrasonic vocalizations (USVs) were recorded and analyzed by sonogram with Avasoft SASlab Pro (Germany) as previously described by Burgdorf et al., “Positive emotional learning is regulated in the medial prefrontal cortex by GluN2B-containing NMDA receptors,” Neuroscience, 192:515-523, 2011. Frequency modulated 50-kHz USVs that occurred during each the no-stimulation periods were quantified to measure PEL. […]

Chain of NR2A (Q12879 23-1464, species assumed, other chains not shown): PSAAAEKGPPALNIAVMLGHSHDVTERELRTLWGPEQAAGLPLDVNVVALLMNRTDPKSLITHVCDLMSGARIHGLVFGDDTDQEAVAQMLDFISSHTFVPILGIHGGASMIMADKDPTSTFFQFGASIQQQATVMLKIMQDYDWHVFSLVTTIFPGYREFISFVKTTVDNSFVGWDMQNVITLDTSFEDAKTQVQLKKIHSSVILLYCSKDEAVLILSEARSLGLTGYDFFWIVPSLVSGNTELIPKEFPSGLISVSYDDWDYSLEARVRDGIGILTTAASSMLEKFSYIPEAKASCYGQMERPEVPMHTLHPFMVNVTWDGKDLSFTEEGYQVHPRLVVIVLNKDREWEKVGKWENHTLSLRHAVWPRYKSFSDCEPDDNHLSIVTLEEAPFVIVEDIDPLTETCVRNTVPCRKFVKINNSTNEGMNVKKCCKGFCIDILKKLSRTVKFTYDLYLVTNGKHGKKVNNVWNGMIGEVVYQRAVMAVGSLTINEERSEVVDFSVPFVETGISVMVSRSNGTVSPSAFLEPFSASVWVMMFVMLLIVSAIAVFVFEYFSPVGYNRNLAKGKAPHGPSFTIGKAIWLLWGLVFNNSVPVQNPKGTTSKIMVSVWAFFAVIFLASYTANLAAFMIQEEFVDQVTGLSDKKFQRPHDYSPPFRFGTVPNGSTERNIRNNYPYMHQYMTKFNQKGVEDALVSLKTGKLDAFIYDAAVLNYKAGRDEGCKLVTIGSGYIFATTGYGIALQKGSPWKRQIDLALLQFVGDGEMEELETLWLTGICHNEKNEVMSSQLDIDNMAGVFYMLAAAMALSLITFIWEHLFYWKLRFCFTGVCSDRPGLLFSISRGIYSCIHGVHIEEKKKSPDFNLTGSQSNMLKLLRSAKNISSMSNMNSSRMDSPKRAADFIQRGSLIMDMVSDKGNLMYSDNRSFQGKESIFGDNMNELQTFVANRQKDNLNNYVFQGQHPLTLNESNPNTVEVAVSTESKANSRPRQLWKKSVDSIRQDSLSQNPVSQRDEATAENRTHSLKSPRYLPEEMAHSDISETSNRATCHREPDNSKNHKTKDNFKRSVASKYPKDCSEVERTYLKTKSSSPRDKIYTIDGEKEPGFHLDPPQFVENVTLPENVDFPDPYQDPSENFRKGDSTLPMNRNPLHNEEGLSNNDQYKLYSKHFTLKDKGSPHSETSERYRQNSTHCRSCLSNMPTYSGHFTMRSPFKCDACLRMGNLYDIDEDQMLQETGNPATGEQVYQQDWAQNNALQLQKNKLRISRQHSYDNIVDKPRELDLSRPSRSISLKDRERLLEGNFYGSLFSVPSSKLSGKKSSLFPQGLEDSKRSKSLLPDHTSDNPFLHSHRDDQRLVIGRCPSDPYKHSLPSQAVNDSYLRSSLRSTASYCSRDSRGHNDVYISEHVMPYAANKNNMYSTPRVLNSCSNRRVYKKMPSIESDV

For `C[C@@H](O)[C@@H](C(N)=O)N1C[C@@]2(CCCN2S(C)(=O)=O)C1=O` [Compound BB, (2S,3R)-3-hydroxy-2-((S)-5-(methylsulfonyl)-1-oxo-2,5-diazaspiro[3,4]octan-2-yl)butanamide], the “NR2A A (%) (activity)” value ([1]; potentiation of [3H]MK-801 binding) was 0%, the “NMDAR2A BINDING PROFILE % 1 mM Glycine” value ([1]; relative to 1 mM glycine) was 0% and the “binding to NR2A (in words)” value ([1]; statement in description) was “substantially no binding”. For the same compound, the “NMDAR2A BINDING PROFILE Conclusion” value ([1]; wild-type NMDAR2A) was “WT2A no”, the “floating time in the Porsolt test” value [2] was “produces an antidepressant-like effect as measured by decreased floating time” and the “blast-induced cognitive deficits as measured by PEL” value [3] was “reversed blast-induced cognitive deficits”.
